# In article PMC9570109, “Improved Trimethylangelicin Analogs for Cystic Fibrosis: Design, Synthesis and Preliminary Screening” (International Journal of Molecular Sciences, 2022):
# Where two headings read alike, the source gives them in different places.
# Legend:
# F508del CFTR [1] = target: T1, F508del CFTR (Homo sapiens, UniProt P13569, DEL508-508); assay: F508del CFTR functional rescue (corrector) HS-YFP single-cell assay; type: cell-based; conditions: CFBE41o- YFP-F508del cells; for F508del CFTR rescue (corrector) activity: 48 h incubation, 200 nM
# T1 construct: expressed in transfected cells; host or cells: CFBE41o- cells overexpressing F508del CFTR and HS-YFP (YFP-H148Q/I152L), a gift from N. Pedemonte, Gaslini Institute
# Procedure: To verify the possibility that the title compounds may act as correctors in CFBE41o-, overexpressing F508del and the high sensitivity halide-sensing yellow fluorescent protein (HS-YFP) YFP-H148Q/I152L, we examined the effect of 48 h preincubation with vehicle or the TMA analogs or TMA or VX809 (Lumacaftor), as a positive control.
# At the time of the assay, the correction of the F508del-CFTR function was evaluated in single-cell analysis by measuring the decrease in YFP fluorescence after the concomitant addition of extracellular iodide and the activating cocktail (20 μM forskolin and 5 μM VX770), in the presence or absence of the 10 μM CFTR inhibitor, CFTRinh-172. […] At least two derivatives show CFTR activity similar to that of the parent TMA.
# The effect of TMA analogs on CFTR function was tested in CFBE41o- overexpressing F508del and the high sensitivity halide-sensing yellow fluorescent protein (HS-YFP) YFP-H148Q/I152L (a generous gift from N. Pedemonte, Gaslini Institute, Genova, Italy). YFP CF cells were seeded on round glass coverslips and preincubated for 48 h with vehicle or test compounds or VX809 or TMA. At the time of the assay, cells were washed in Dulbecco’s PBS (in mM: 137 NaCl, 2.7 KCl, 8.1 Na2HPO4, 1.5 KH2PO4, 1 CaCl2, and 0.5 MgCl2, pH 7.4) and subsequently incubated with a stimulation cocktail (20 μM forskolin and 5 μM VX770) in the presence and absence of 10 μM CFTR inhibitor, CFTRInh-172 (Sigma), for 30 min. The coverslips were then transferred on a Nikon TMD inverted microscope through a Nikon Fluor 40 objective. The signal was acquired with a Hamamatsu C2400–97 charge-coupled intensified video camera at a rate of 1 frame/3 s. The fluorescence coming from every single cell was analyzed by custom software (Spin, Vicenza, Italy). The results are presented as transformed data to obtain the percentage signal variation (Fx) relative to the time of addition of the stimulus, according to the equation: Fx = ([Ft − Fo]/Fo) × 100, where Ft and Fo are the fluorescence values at time t and at the time of stimulus addition, respectively. The assay of each sample consists of a continuous 99-s fluorescence reading with 30 s before and 69 s after injection of the iodide-rich Dulbecco’s PBS (in mM: 137 NaI, 2.7 KCl, 8.1 Na2HPO4, 1.5 KH2PO4, 1 CaCl2, and 0.5 MgCl2, pH 7.4) to reach a final iodide concentration of 50 mM [20]. The different sensitivity of HS-YFP toward iodide and chloride allows assays to be performed by measuring the transport of anions through the plasma membrane as changes in cell fluorescence. For this assay, cells expressing HS-YFP are equilibrated in a physiological chloride-rich saline solution (e.g., Dulbecco’s PBS). During fluorescence reading, cells are exposed to a high concentration of iodide. Iodide influx quenches the cell fluorescence with a rate that depends on the permeability of the cell membrane to halides, and therefore, on the activity of the anion channels or transporters.
# Figure 4 Evaluation of different TMA analogs as F508del CFTR correctors in CFBE41o- YFP-F508del cells. Correction of F508del-CFTR function was assessed, in a single cell, by measuring the decrease in YFP fluorescence upon addition of extracellular iodide and with the activating cocktail, in the presence or absence of CFTR inhibitor, CFTRInh-172. Iodide influx was tested under control condition (vehicle) or after 48 h incubation with the correctors 200 nM or 1 μM VX809. The YFP fluorescence decay rate was calculated by fitting the fluorescence data with an exponential function of time courses. CFTR activity was obtained by the difference between the fluorescence decay rate of YFP in the presence and absence of CFTRInh-172. Fluorescence coming from every single cell of at least five cells per field was recorded. Each bar corresponds to the mean ± SEM of data points coming from at least three different experiments (5–10 different cells/each experiment). […]
# F508del CFTR [2] = target: T1, F508del CFTR; set-up: method as in PMID 30022950; conditions: nanomolar concentrations; cited from earlier work
# [3] = system: CFTR in FRT-YFP-G551D cells; set-up: method as in PMID 30022950; conditions: cited from earlier work
# [4] = set-up: method as in PMID 29627723; conditions: cited from earlier work
# NF-kB/DNA interactions = system: NF-kB/DNA interactions; set-up: method as in PMID 29627723; conditions: cited from earlier work
# [5] = In vivo oral pharmacokinetics in mice; conditions: c57BL/6 male mice
# Procedure: The main pharmacokinetic parameters of 4-PhDMA, pANDMA, and pANDMA mesylate were evaluated in c57BL/6 male mice, using water as dispersing vehicle.
# All experimental procedures involving animals were conducted in accordance with the 3R principle to minimize their pain and discomfort. […] For the PK analysis, C57Bl6 male mice (n = 3 per time point) were gavaged with selected compounds (20 mg/kg), suspended in water, or dissolved in SEDDS formulations, after an overnight fast. […] 8.0 software (GraphPad Software Inc., San Diego, CA, USA), when appropriate. If not otherwise stated, the PK data are expressed as mean ± SD. p < 0.05 was considered statistically significant.
# The TMA analogs were extracted and analyzed from mouse plasma as already reported. Briefly, 100 µL of plasma were treated with 300 µL of cold acetonitrile spiked with 80 nM of internal standard (IS, 6,4′-dimethylangelicin), and then the samples were centrifuged for 10 min at 12,000× g (Hettich Mikro 120 Benchtop Centrifuge) and 25 °C. Ten microliters of the supernatant were injected into the UHPLC system.
# The analytical column was a Kinetex 2.6 μm C18 Polar, 100 A, 100 × 2.1 mm (Phenomenex, Bologna, Italy), thermostated at 30 °C. The mobile phase components A and B were water and methanol, respectively, both containing 10 mM ammonium formate. The eluent flow rate was 0.25 mL/min. […] MS data were analyzed using the Mass Hunter Qualitative Analysis software (Agilent Technologies, Palo Alto, CA, USA).
# Chromatographic peaks of the TMA analog were identified and integrated by considering the Extracted Ion Chromatogram (EIC) of the [M+H]^+ species selected with a window of 5 ppm and normalized by the IS. Quantification of TMA analogs was carried out by external calibration of normalized signals using a seven-point calibration curve obtained by spiking blank plasma with each TMA analog in the range of 20–3000 nM.
# salmon testes DNA = assay: Photoadduct formation with DNA under UVA irradiation (TLC analysis); conditions: 15 J/cm2 UVA
# Procedure: The total energy that struck the sample was monitored by means of a radiometer (Variocontrol, Waldmann, Villingen-Schwenningen, Germany), equipped with a Variocontrol UV Sensor (Waldmann). The radiant power emitted by the UVA lamp was about […]. The samples were maintained at room temperature during irradiation.
# The test compounds were dissolved in ethanol (2 mg/mL) and salmon testes DNA (Sigma-Aldrich) was dissolved in 10 mM NaCl and 1 mM EDTA solution (1.5 × 10^−3 M). Each test solution (250 μL) was added dropwise to the DNA solution (5 mL). The mixture was irradiated with 15 J/cm2 UVA light in a glass dish for 1 h. After irradiation, the DNA was precipitated with 1 M NaCl and two volumes of cold ethanol; the precipitated DNA was collected, washed with 80% ethanol, dried, and then dissolved in water. To obtain hydrolysis, the final solution was acidified with 1 M HCl, heated at 100 °C for 1 h, neutralized with NaOH and extracted three times with chloroform. Then, all of the organic layers were collected, dried under a high vacuum, and dissolved in ethanol. The hydrolyzed mixtures were separated by thin layer chromatography (TLC; F254 plates, 0.25 mm, Merck, Darmstadt, Germany) eluting with EtOAc/EtOH (9:1). The plates were analyzed with a Mineral Light Lamp VL-4LC VILBERT-LOURMAT (Vilber, Marne-la-Vallée, France).
# HepG2 cells = assay: Cytotoxicity MTT assay on HepG2 cells; conditions: HepG2, 24 h, highest concentration tested (50 μM)
# Procedure: The potential toxicity of TMA analogs on hepatic tissue was assessed by evaluating the viability of HepG2 cells (ATCC, HB-8065) using the MTT assay, as previously reported [22]. Cells were maintained in DMEM complete medium (10% FBS, 1% l-glutamine and 1% PEN-STREP) and seeded in a 96-well plate (5 × 10^4 cells/mL). They were treated for 24 h with TMA analogs (concentration range from 3.125 μM to 50 μM). At the end of the treatment, cells were washed and an MTT solution (0.5 mg/mL in complete medium) was added to each well and incubated for 4 h at 37 °C. The solution was discarded, and the produced blue formazan crystals were dissolved with acidified isopropanol (2% HCl). Absorbance was measured at 570 nm using a multiplate reader (Victor Nivo, Perkin Elmer). The percentage of viable cells was calculated considering untreated cells as control.
# The data shown in this figure are the results of three independent experiments, each
# performed in quadruplicate.
# [6] = mouse, plasma, po, 20 mg/kg gavage, in water
# T1 sequence (P13569 with tags, fused parts or gaps DEL508-508): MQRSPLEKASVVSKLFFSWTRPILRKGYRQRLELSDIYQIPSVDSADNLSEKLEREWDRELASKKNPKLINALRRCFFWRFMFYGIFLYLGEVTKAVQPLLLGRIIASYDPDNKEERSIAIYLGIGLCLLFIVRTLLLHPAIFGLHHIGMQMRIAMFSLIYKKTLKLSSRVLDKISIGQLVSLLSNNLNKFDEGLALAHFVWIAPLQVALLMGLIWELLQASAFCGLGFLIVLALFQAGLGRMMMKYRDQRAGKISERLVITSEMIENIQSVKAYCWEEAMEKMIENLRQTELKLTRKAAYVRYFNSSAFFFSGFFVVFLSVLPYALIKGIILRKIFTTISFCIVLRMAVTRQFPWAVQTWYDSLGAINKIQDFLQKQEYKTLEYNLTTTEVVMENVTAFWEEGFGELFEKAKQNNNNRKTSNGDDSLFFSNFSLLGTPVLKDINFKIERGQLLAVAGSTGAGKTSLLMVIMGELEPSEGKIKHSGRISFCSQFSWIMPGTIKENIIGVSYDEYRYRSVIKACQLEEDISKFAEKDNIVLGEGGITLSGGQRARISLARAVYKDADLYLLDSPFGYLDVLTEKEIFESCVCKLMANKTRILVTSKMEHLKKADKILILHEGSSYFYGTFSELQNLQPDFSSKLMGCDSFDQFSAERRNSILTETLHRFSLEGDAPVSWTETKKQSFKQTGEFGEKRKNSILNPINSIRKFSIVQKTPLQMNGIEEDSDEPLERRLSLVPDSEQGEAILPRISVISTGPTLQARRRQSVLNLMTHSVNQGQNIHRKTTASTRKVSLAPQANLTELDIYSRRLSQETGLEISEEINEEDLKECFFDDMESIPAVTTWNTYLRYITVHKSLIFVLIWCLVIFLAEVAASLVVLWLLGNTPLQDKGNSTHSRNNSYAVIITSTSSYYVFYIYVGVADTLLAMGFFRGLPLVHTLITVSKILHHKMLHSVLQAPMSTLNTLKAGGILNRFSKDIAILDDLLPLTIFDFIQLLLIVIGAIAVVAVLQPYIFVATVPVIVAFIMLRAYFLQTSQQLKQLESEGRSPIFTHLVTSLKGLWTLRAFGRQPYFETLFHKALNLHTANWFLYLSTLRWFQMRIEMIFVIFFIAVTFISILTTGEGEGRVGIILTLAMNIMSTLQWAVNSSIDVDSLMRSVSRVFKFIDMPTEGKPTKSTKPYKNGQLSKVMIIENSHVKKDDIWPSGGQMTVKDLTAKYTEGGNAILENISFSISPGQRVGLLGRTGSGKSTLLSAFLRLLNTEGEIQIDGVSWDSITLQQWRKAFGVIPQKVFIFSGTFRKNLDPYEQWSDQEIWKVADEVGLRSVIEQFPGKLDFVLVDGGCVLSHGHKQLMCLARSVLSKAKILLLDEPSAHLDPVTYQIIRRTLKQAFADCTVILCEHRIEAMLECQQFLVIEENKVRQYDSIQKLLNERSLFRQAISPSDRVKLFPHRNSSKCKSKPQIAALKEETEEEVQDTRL
smiles,measurement,setting,value
CCc1cc2c(-c3ccccc3)cc(=O)oc2c2c(C)coc12 [4-PhEMA],F508del CFTR rescue (corrector) activity,F508del CFTR [1],inactive
Cc1coc2c(-c3ccccc3)cc3c(C4CC4)cc(=O)oc3c12 [CPPhMA],F508del CFTR rescue (corrector) activity,F508del CFTR [1],inactive
"CCc1cc2c(C(C)C)cc(=O)oc2c2c(C)coc12 [IPEMA, 4-isopropyl-6-ethyl-4′-methylangelicin]",rescue of F508del CFTR-dependent chloride efflux,F508del CFTR [2],significantly rescued
same,potentiation activity of CFTR,[3],maintained the potentiation activity
same,mutagenicity and DNA damaging properties,[4],lacking mutagenicity and DNA damaging properties
same,inhibitory activity on NF-kB/DNA interactions,NF-kB/DNA interactions,TMA-like inhibitory activity
same,CL/F,"[5]; 20 mg/kg gavage, in water",0.0633 ± 0.005 mL/h/g
same,oral bioavailability,[5]; water as vehicle,very low
same,Cmax,[5]; [6],120 ± 55.3 nM
same,half-life,[5]; [6],9.01 ± 1.34 h
same,AUC 0-inf,"[5]; mouse, plasma, po, 20 mg/kg gavage, in water, read-out: AUC 0-inf",0.395 ± 0.0987 µM·h
same,Tmax,"[5]; mouse, plasma, po, 20 mg/kg gavage, in water, read-out: Tmax",1 h
Cc1coc2c(-c3ccccc3)cc3c(C(C)C)cc(=O)oc3c12 [IPPhMA],F508del CFTR rescue (corrector) activity,F508del CFTR [1],inactive
Cc1cc(=O)oc2c1cc(-c1ccncc1)c1occ(C)c12 [PyDMA],F508del CFTR rescue (corrector) activity,F508del CFTR [1],inactive
"Cc1cc(=O)oc2c1cc(C)c1occ(C)c12 [TMA, 4,6,4′-trimethylangelicin, reference compound]",photoadduct formation with DNA upon UVA irradiation,salmon testes DNA,showed photoadducts
Cc1cc(=O)oc2c1cc(-c1cccs1)c1occ(C)c12 [ThiDMA],F508del CFTR rescue (corrector) activity,F508del CFTR [1],inactive
Cc1cc(=O)oc2c1cc(-c1cccc(N)c1)c1occ(C)c12 [mANDMA],F508del CFTR rescue (corrector) activity,F508del CFTR [1],inactive
CS(=O)(=O)O.Cc1cc(=O)oc2c1cc(-c1ccc(N)cc1)c1occ(C)c12 [pANDMA mesylate],reduction in YFP fluorescence induced by iodide influx compared to vehicle,"F508del CFTR [1]; 48 h treatment, representative time courses",greater reduction in YFP fluorescence
same,cell viability,HepG2 cells,greater than 75%
same,AUC 0-inf,"[5]; 20 mg/kg gavage, in water",9.4026 ± 0.7422 µM·h
same,CL/F,"[5]; 20 mg/kg gavage, in water",0.0091 ± 0.0002 mL/h/g
same,Cmax,"[5]; 20 mg/kg gavage, in water",3870 ± 1070 nM
same,Tmax,"[5]; 20 mg/kg gavage, in water",0.375 ± 0.177 h
same,t1/2,"[5]; 20 mg/kg gavage, in water",1.87 ± 0.43 h
same,bioavailability relative to pANDMA,[5]; water as vehicle,nearly four-times more bioavailable
